Measurements taken from US20120053155A1, “SYSTEM AND METHOD FOR REVERTING ANTIBIOTIC TOLERANCE OF BACTERIAL PERSISTER CELLS” (Syracuse University, priority 2010, published 2012).

Experiments:
[1] = tested on: Vibrio harveyi BB886 quorum sensing based on homoserine lactones; test: Quorum sensing assay (bioluminescence of reporter strain); format: cell-based; conditions: 10 μg/mL; V. harveyi BB886; bioluminescence at 5 h after inoculation
Experimental: To understand the effects of BFs on quorum sensing, the reporter strain Vibrio harveyi BB886 was used to monitor the quorum sensing based on homoserine lactones. Briefly, an overnight culture of this strain was diluted by 1:5000 in autoinducer bioassay medium with BFs supplemented at different concentrations. The bioluminescence was measured at 5 h after inoculation.

[2] = tested on: P. aeruginosa PAO1 persister cells; test: DNA microarray analysis of gene expression in persister cells; format: cell-based, Pseudomonas aeruginosa; conditions: 1 μg/mL, 1 h
Experimental: Persister cells were harvested from a 100 mL 18-h culture of P. aeruginosa PAO1. The isolated persister cells were resuspended in 0.85% NaCl buffer supplemented with 1 μg/mL (3.7 μM) BF8 or with the same amount of ethanol (4.17 μL to eliminate the solvent effect as the control). After incubation at 37° C. for 1 h, cells were collected by centrifugation at 10,000 rpm for 5 minutes at 4° C., transferred to 2 mL pre-cooled microcentrifuge tubes and frozen in an ethanol-dry ice bath. The cell pellets were stored at −80° C. until RNA isolation.
The RNeasy Mini Kit (Qiagen) was used to isolate total RNA. First, the cells were lysed by beating at 4,800 oscillations/min using a mini-bead beater (Biospec Products Inc., Bartlesville, Okla.) with 0.5-mm glass beads, 900 uL RLT buffer and 1% 2-Mercaptoethanol. The total RNA was extracted following the manufacture's protocol with additional wash with RW1 buffer, RPE buffer and DNase treatment (RNase-Free DNase Set, Qiagen). The RNA samples were sent to the DNA microarray Facilities at SUNY Upstate Medical University for microarray hybridization.

[3] = tested on: P. aeruginosa PAO1; test: Effect on persister formation in subcultures (CFU after Cip treatment); format: cell-based, Pseudomonas aeruginosa
Experimental: A P. aerugionsa PAO1 overnight culture was sub-cultured into 6 tubes with 5 mL fresh LB medium in each with the optical density at 600 nm (OD600) adjusted to 0.05. Each tube contained different concentrations of BF8 (0, 5, 10, 30, 50 and 100 μg/mL) diluted from a 60 mg/mL stock solution. The amount of ethanol was adjusted to be the same for all samples to eliminate solvent effects. After 5 h of incubation, 2 mL sample from each tube was washed and plated on LB agar plates for counting colony forming units (“CFU”); while 3 mL of sample was added with 200 μg/mL Cip and incubated for 3.5 h to count the numbers of cells that remained as persisters.
To compare with the effects of sugars known to promote antibiotic uptake by persisters, the above experiment was repeated using 10 mM glucose and mannitol instead of BF8.

[4] = tested on: P. aeruginosa PAO1 persister cells; test: Antibiotic (Cip) susceptibility of isolated persister cells; format: cell-based, Pseudomonas aeruginosa; conditions: for reverting antibiotic tolerance of persisters: different concentrations, 0.85% NaCl buffer, Cip
Experimental: (§1) Pseudomonas aeruginosa PAO1 was routinely grown in Luria-Bertani (LB) medium. To isolate persister cells, an overnight culture was incubated for 18 h at 37° C. with shaking at 200 rpm, washed twice with 0.85% NaCl buffer, resuspended in the same buffer and then treated with 200 μg/mL Cip for 3.5 h to lyse the regular cells. The remaining persister cells were then harvested by centrifugation at 13,200 rpm for 3 min at room temperature and then treated with or without furanones as described below.
(§2) To obtain persisters, 3 mL of overnight culture of P. aeruginosa PAO1 was incubated for 3.5 h with 200 μg/mL Cip to kill all regular cells. The remaining persisters were washed twice with and resuspended in 0.85% NaCl buffer with 1:50 dilution. Samples were taken immediately to count the CFUs of persisters. Then, each 5 mL of 0.85% NaCl buffer containing persister cells was treated for 3.5 h with 0, 0.1, 0.5, 1 and 2 μg/mL of BF8. The amount of ethanol was adjusted to be the same for all samples. CFUs of treated persister cells were counted to understand if BF8 has any effects on the viability of persister cells.
The persister cells treated with BF8 as described above were then treated again with 200 μg/mL Cip to understand if any persister cells restored susceptibility to Cip. The CFUs were counted as described above.

[5] = tested on: P. aeruginosa PAO1 persister cells; test: Viability of isolated persister cells (CFU); format: cell-based, Pseudomonas aeruginosa; conditions: up to 2 μg/mL; 0.85% NaCl buffer
Experimental: as §1, §2

Question: With `CC1=C(Br)/C(=C/Br)OC1=O` [BF8] as the molecule, how does the “response of the reporter strain to homoserine lactones” value [1] read?
Answer: The value was “completely eliminated”.

Question: And the “Expression Ratio PA0182” value ([2]; gene PA0182 (3-ketoacyl-(acyl-carrier-protein) reductase))?
Answer: Its value is 97.1.

Question: What about the “Expression Ratio PA0422” value ([2]; gene PA0422 (hypothetical protein)) of the same molecule?
Answer: The value was 4.2.

Question: And the “Expression Ratio PA0565” value ([2]; gene PA0565 (hypothetical protein))?
Answer: Its value is 12.8.

Question: And the “Expression Ratio PA0741” value ([2]; gene PA0741 (hypothetical protein))?
Answer: Its value is 16.5.

Question: What about the “Expression Ratio PA1127” value ([2]; gene PA1127 (oxidoreductase)) of the same molecule?
Answer: Its value is 3.4.

Question: And the “Expression Ratio PA1210” value ([2]; gene PA1210 (hypothetical protein))?
Answer: Its value is 21.

Question: What about the “Expression Ratio PA1285” value ([2]; gene PA1285 (transcriptional regulator)) of the same molecule?
Answer: The value was 4.4.

Question: And the “Expression Ratio PA1334” value ([2]; gene PA1334 (oxidoreductase))?
Answer: The value was 227.6.

Question: What about the “Expression Ratio PA1374” value ([2]; gene PA1374 (hypothetical protein)) of the same molecule?
Answer: Its value is 3.4.

Question: And the “Expression Ratio PA1470” value ([2]; gene PA1470 (short chain dehydrogenase))?
Answer: The value was 4.1.

Question: What about the “Expression Ratio PA2196” value ([2]; gene PA2196 (transcriptional regulator)) of the same molecule?
Answer: Its value is 4.8.

Question: And the “Expression Ratio PA2378” value ([2]; gene PA2378 (aldehyde dehydrogenase))?
Answer: The value was 3.1.

Question: And the “Expression Ratio PA2535” value ([2]; gene PA2535 (oxidoreductase))?
Answer: The value was 9.

Question: What about the “Expression Ratio PA2575” value ([2]; gene PA2575 (hypothetical protein)) of the same molecule?
Answer: The value was 9.1.

Question: And the “Expression Ratio PA2580” value ([2]; gene PA2580 (hypothetical protein))?
Answer: The value was 8.3.

Question: And the “Expression Ratio PA2610” value ([2]; gene PA2610 (hypothetical protein))?
Answer: The value was 7.2.

Question: And the “Expression Ratio PA2691” value ([2]; gene PA2691 (hypothetical protein))?
Answer: Its value is 3.7.

Question: And the “Expression Ratio PA2839” value ([2]; gene PA2839 (hypothetical protein))?
Answer: Its value is 11.

Question: And the “Expression Ratio PA2931” value ([2]; gene PA2931 (CifR))?
Answer: The value was 11.

Question: What about the “Expression Ratio PA2932_morB” value ([2]; gene PA2932_morB (morphinone reductase)) of the same molecule?
Answer: The value was 64.9.

Question: And the “Expression Ratio PA3133” value ([2]; gene PA3133 (transcriptional regulator))?
Answer: Its value is 3.5.

Question: What about the “Expression Ratio PA3223_acpD” value ([2]; gene PA3223_acpD (AzoR3, azoreductase 3)) of the same molecule?
Answer: The value was 4.8.

Question: What about the “Expression Ratio PA3240” value ([2]; gene PA3240 (hypothetical protein)) of the same molecule?
Answer: The value was 14.4.

Question: What about the “Expression Ratio PA3523” value ([2]; gene PA3523 (RND efflux membrane fusion protein precursor)) of the same molecule?
Answer: Its value is 9.6.

Question: What about the “Expression Ratio PA3920” value ([2]; gene PA3920 (metal transporting P-type ATPase)) of the same molecule?
Answer: Its value is 3.9.

Question: And the “Expression Ratio PA4167” value ([2]; gene PA4167 (2,5-diketo-D-gluconate reductase B))?
Answer: Its value is 510.6.

Question: And the “Expression Ratio PA4173” value ([2]; gene PA4173 (hypothetical protein))?
Answer: Its value is 36.7.

Question: And the “Expression Ratio PA4878” value ([2]; gene PA4878 (transcriptional regulator))?
Answer: The value was 4.2.

Question: And the “cells persistent (retaining antibiotic tolerance) after treatment” value ([3]; 100 μg/mL BF8, 5 h incubation, 200 μg/mL Cip)?
Answer: Its value is 1.6%.

Question: What about the “reduction of the number of persister cells formed compared to the furanone-free control” value ([3]; 100 μg/mL, 5 h incubation in LB medium, 200 μg/mL Cip 3.5 h) of the same molecule?
Answer: Its value is “up to 100 times”.

Question: And the “persister cells rendered sensitive to Cip” value ([4]; 2 μg/mL, then 200 μg/mL Cip)?
Answer: Its value is “around 90%”.

Question: And the “susceptibility of persisters to Cip” value ([4]; 0.5, 1 and 2 μg/mL, then 200 μg/mL Cip)?
Answer: Its value is “more susceptible to Cip”.

Question: What about the “killing effects on persister cells (viability)” value [5] of the same molecule?
Answer: The value was “did not exhibit any significant killing effects”.

Question: For `CC1=CC(=C(Br)Br)OC1=O` [BF9], which “reverting antibiotic tolerance of persisters” value (shortened to “reverting antibiotic tolerance”) [4] is on record?
Answer: The value was “revert antibiotic tolerance in a dose dependent manner”.

Question: `O=C1OC(=C(Br)Br)C=C1C(Br)Br` [BF10] was tested. Which “reverting antibiotic tolerance” value [4] did it give?
Answer: The value was “revert antibiotic tolerance in a dose dependent manner”.

Question: Which “reverting antibiotic tolerance” value [4] does the source give for `O=C1OC(=C(Br)Br)C=C1CBr` [BF11] here?
Answer: The value was “revert antibiotic tolerance in a dose dependent manner”.

Question: How did the “reverting antibiotic tolerance” value [4] turn out when `CC1=C(Br)C(C(Br)Br)OC1=O` (centres unmarked) [BF14] was run?
Answer: The value was “revert antibiotic tolerance in a dose dependent manner”.
